Source: US7179495B1 (Universitaetsklinikum Freiburg, priority 1998, dated 2007)

How the values were obtained:
[1] = tested on: T cells; assay: proliferation of T cells; assay type: cell-based
[2] = tested on: keratinocytes (HaCaT); assay: induction of apoptosis in keratinocytes; assay type: cell-based
[3] = tested on: HaCaT cells; assay: proliferation of keratinocytes, 3H-thymidine incorporation; assay type: cell-based, human
[4] = tested on: T cells; assay: induction of apoptosis in T cells; assay type: cell-based
[5] = tested on: epidermal cells (EC) and T cells (TC); assay: MECLR in vitro, EC or TC preincubated with hyperforin; settings: FIG. 9
Protocol: The roof of the blister was dissected out under sterile conditions using a scalpel and a suspension of epidermal cells (EC) was prepared by treating with trypsin. […] After that, the cells were washed and 50,000 EC were cocultured for 6 days (37° C., 5% CO2) with 150,000 TC (T cells) in 1640 RPMI containing 10% foetal calf serum (FCS) containing 1% penicillin-streptomycin in 96-well flat-bottomed microtitre plates (Greiner). 1 μCurie of ^3H-thymidine (Amersham) was then added per well and, after 18 h, the incorporated radioactivity was measured in a scintillation counter (Canberra Packard). The radioactivity which is measured is proportional to the replication of the DNA in the cells.

[6] = tested on: Jurkat (leukaemia); assay: apoptotic DNA fragmentation by DNA gel electrophoresis; assay type: cell-based, human
Protocol: The DNA fragmentation was determined by means of DNA gel electrophoresis. Jurkat (leukaemia) was used as the tumour cell line.
Apoptotic DNA fragments were isolated by means of lysis with NP 40. The cells were washed and pelleted after 4 hours or after 24 hours, respectively. The cell pellet was incubated for 10 sec. with lysis buffer (1% NP 40, Sigma; 20 mM EDTA, Sigma; 50 mM Tris-HCl, Sigma). the lysates were mixed with 1% SDS (Sigma), incubated at 56° C. for 2 h with RNase (5 μg/μl) (Boehringer), and digested with proteinase K (Sigma) (2.5 μg/μl) for 2 h at 37° C. After 10 M ammonium acetate had been added, the DNA was precipitated with 100% ethanol at −20° C. and analysed by means of gel electrophoresis on 1% agarose gels.

Compound: Cc1cc(O)c2c(=O)c3c(O)cc(O)c4c5c(O)cc(O)c6c(=O)c7c(O)cc(C)c8c1c2c(c34)c(c78)c65 [hypericin]
- effect on proliferation of T cells [1]: proliferation-inhibiting effect
- induction of apoptosis [2]: can induce apoptasis
- effect on proliferation of keratinocytes (HaCaT) [3]: proliferation-inhibiting effect
- induction of apoptosis [4]: can induce apoptasis

Compound: CC(C)=CCC[C@]1(C)[C@@H](CC=C(C)C)CC2(CC=C(C)C)C(=O)C(CC=C(C)C)=C(O)C1(C(=O)C(C)C)C2=O (stereo partly shown) [hyperforin]
- proliferation in MECLR ([5]; EC incubated 24 h with 24 μg of hyperforin/ml): significantly inhibits proliferation
- proliferation in MECLR ([5]; TC incubated 24 h with 24 μg of hyperforin/ml): significantly inhibits proliferation
- apoptotic DNA fragmentation ([6]; 40 μM, 4 hours): ++
- apoptotic DNA fragmentation ([6]; 40 μM, 24 hours): ++
- speed of apoptosis induction compared with taxol ([6]; hyperforin 40 μM vs taxol 10 μM, fully developed after only 4 hours): induces apoptosis in tumour cells more rapidly than does taxol
- concentration from which a proliferation-inhibiting effect is seen ([3]; human keratinocytes): ≥ 100 ng/mL
- proliferation of HaCaT cells ([3]; hyperforin 100 μg/ml, 24 h, FIG. 6): virtually completely inhibited

Compound: CC(=O)O[C@H]1C(=O)[C@@]2(C)[C@H]([C@H](OC(=O)c3ccccc3)[C@]3(O)C[C@H](OC(=O)[C@H](O)[C@@H](NC(=O)c4ccccc4)c4ccccc4)C(C)=C1C3(C)C)[C@]1(OC(C)=O)CO[C@@H]1C[C@@H]2O [taxol, reference compound]
- apoptotic DNA fragmentation ([6]; 10 μM, 4 hours): +
- apoptotic DNA fragmentation ([6]; 10 μM, 24 hours): ++
